Laboratory results published in ChEMBL document CHEMBL1201862, “PubChem BioAssay data set” (2004).
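Interpolation was linear, between the two tested concentrations surrounding the appropriate level; five concentrations were tested over 48 hours in 96-well plates. Abbreviation: GI50, concentration required for 50% inhibition of growth.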 Calls of active or inactive are those of the source. Rule as the data show it: active = GI50 up to about 1.1 µM and inactive = higher.

Experiments:
Assay in all cases: DTP human tumour cell line panel, 48 h
ACHN = system: ACHN
M14 = system: M14
NCI-H226 = system: NCI-H226
TK-10 = system: TK-10
SNB-75 = system: SNB-75
HOP-62 = system: HOP-62
UO-31 = system: UO-31
UACC-62 = system: UACC-62
RPMI-8226 = system: RPMI-8226
SF-539 = system: SF-539
A498 = system: A498
RXF 393 = system: RXF 393
HCC 2998 = system: HCC 2998
SK-MEL-5 = system: SK-MEL-5
SW-620 = system: SW-620
HL-60 = system: HL-60
Hs-578T = system: Hs-578T
NCI-H23 = system: NCI-H23
HCT-15 = system: HCT-15
Malme-3M = system: Malme-3M

| Compound | GI50 (ACHN) | GI50 (M14) | GI50 (NCI-H226) | GI50 (TK-10) | GI50 (SNB-75) | GI50 (HOP-62) | GI50 (UO-31) | GI50 (UACC-62) | GI50 (RPMI-8226) | GI50 (SF-539) | GI50 (A498) | GI50 (RXF 393) | GI50 (HCC 2998) | GI50 (SK-MEL-5) | GI50 (SW-620) | GI50 (HL-60) | GI50 (Hs-578T) | GI50 (NCI-H23) | GI50 (HCT-15) [µM] | GI50 (Malme-3M) |
| --- | --- | --- | --- | --- | --- | --- | --- | --- | --- | --- | --- | --- | --- | --- | --- | --- | --- | --- | --- | --- |
| CSc1nc(C)c(CCOC(C)=O)c(Cl)n1 | > 100 µM (inactive) | > 100 µM (inactive) | > 100 µM (inactive) | > 100 µM (inactive) | > 100 µM (inactive) | > 100 µM (inactive) | > 100 µM (inactive) | > 100 µM (inactive) | > 100 µM (inactive) | > 100 µM (inactive) | 48 µM (inactive) | > 100 µM (inactive) | > 100 µM (inactive) | > 100 µM (inactive) | > 100 µM (inactive) | > 100 µM (inactive) | > 100 µM (inactive) | > 100 µM (inactive) | > 100 | > 100 µM (inactive) |
| COc1cccc(C2c3cc4c(cc3OC(C)(O)C2C)OCO4)c1O (stereo not given) | 7.06 µM (inactive) | 3.48 µM (inactive) | 5.12 µM (inactive) | 5.56 µM (inactive) | 5 µM (inactive) | 4.2 µM (inactive) | 6.14 µM (inactive) | 5.12 µM (inactive) | 4.17 µM (inactive) | 2.67 µM (inactive) | 3.24 µM (inactive) | 3.69 µM (inactive) | 4.2 µM (inactive) | 2.84 µM (inactive) | 3.25 µM (inactive) | 2.82 µM (inactive) | 2.68 µM (inactive) | 0.966 µM (active) | 3.64 | 6.18 µM (inactive) |
| Cc1nc2ccccc2n1Cc1ccc(NC(=S)Nc2ccccc2)cc1 | 35.2 µM (inactive) | 56.1 µM (inactive) | 82.4 µM (inactive) | > 100 µM (inactive) | 63.8 µM (inactive) | > 100 µM (inactive) | > 100 µM (inactive) | 58.7 µM (inactive) | 50 µM (inactive) | 23.8 µM (inactive) | 28.7 µM (inactive) | 60 µM (inactive) | 92 µM (inactive) | 12.3 µM (inactive) | 45 µM (inactive) | 24.8 µM (inactive) | > 100 µM (inactive) | 83.9 µM (inactive) | 72.8 | 30.4 µM (inactive) |
| CC(C)(C)OC(=O)CN1CCN(CC(=O)N2CCN(C(=O)OCc3ccccc3)CC2)CCN(CC(=O)OC(C)(C)C)CCN(CC(=O)N2CCN(C(=O)OCc3ccccc3)CC2)CC1 | 7.73 µM (inactive) | 3.21 µM (inactive) | 3.84 µM (inactive) | 5.92 µM (inactive) | 1.35 µM (inactive) | 3.7 µM (inactive) | 12.7 µM (inactive) | 2.67 µM (inactive) | 0.942 µM (active) | 2.17 µM (inactive) | 15.4 µM (inactive) | 3.61 µM (inactive) | 1.69 µM (inactive) | 1.71 µM (inactive) | 1.67 µM (inactive) | 0.225 µM (active) | 1.79 µM (inactive) | 2.6 µM (inactive) | 6.15 | 2.33 µM (inactive) |
| Cc1ccc(C(=O)/C=C2/Nc3ccccc3NC2=O)c(C)c1 | 8.36 µM (inactive) | 49.2 µM (inactive) | 10.8 µM (inactive) | 5.58 µM (inactive) | 6.32 µM (inactive) | 5.62 µM (inactive) | 8.32 µM (inactive) | 5.37 µM (inactive) | 25.2 µM (inactive) | 5.04 µM (inactive) | 0.228 µM (active) | 7.52 µM (inactive) | 29.4 µM (inactive) | 19 µM (inactive) | 27.2 µM (inactive) | 23.4 µM (inactive) | 16.2 µM (inactive) | 16.1 µM (inactive) | 64.3 | 54.6 µM (inactive) |
